Species: Rattus norvegicus
Test: DrugMatrix - Regimen: Daily Repeat
Assay type: toxicity, organism-based, Sprague-Dawley
Set-up: regimen Daily Repeat, gender Male, age 6-8 weeks
Conditions: in vivo, po, route oral GAVAGE, vehicle .5 % CMC; for ABSOLUTE BASOPHIL / ABSOLUTE EOSINOPHIL / ABSOLUTE LYMPHOCYTE / ABSOLUTE MONOCYTE / ABSOLUTE SEGMENTED NEUTROPHIL / BASOPHIL / EOSINOPHIL / ERYTHROCYTE COUNT / HEMATOCRIT / HEMOGLOBIN / LEUKOCYTE COUNT / LYMPHOCYTE / MEAN CORPUSCULAR HEMOGLOBIN / MEAN CORPUSCULAR HEMOGLOBIN CONCENTRATION / MEAN CORPUSCULAR VOLUME / MONOCYTE / NEUTROPHIL / NUCLEATED RED BLOOD CELLS / PLATELET COUNT: tissue Blood; for ALANINE AMINOTRANSFERASE / ALBUMIN / ALKALINE PHOSPHATASE / ASPARTATE AMINOTRANSFERASE / BLOOD UREA NITROGEN / CARBON DIOXIDE / CHLORIDE / CHOLESTEROL / CREATINE PHOSPHOKINASE / CREATININE / GLUCOSE / LACTATE DEHYDROGENASE / LIPASE / PHOSPHORUS / POTASSIUM / SODIUM / TOTAL BILIRUBIN / TOTAL PROTEIN / URIC ACID: tissue Plasma
[1] = 0 mg/kg, 72 h, dose level Control, time 3 day
[2] = 0 mg/kg, 120 h, dose level Control, time 5 day
[3] = 30 mg/kg, 72 h, dose level Low, time 3 day

SMILES: CCOc1cc(N)c(Cl)cc1C(=O)NCC1CN(Cc2ccc(F)cc2)CCO1 (centres undefined) [MOSAPRIDE]
- ABSOLUTE BASOPHIL [1]: 0 CELLS/uL
- ABSOLUTE EOSINOPHIL [1]: 171.33 CELLS/uL
- ABSOLUTE LYMPHOCYTE [1]: 13776.5 CELLS/uL
- ABSOLUTE MONOCYTE [1]: 180.83 CELLS/uL
- ABSOLUTE SEGMENTED NEUTROPHIL [1]: 1121.33 CELLS/uL
- BASOPHIL [1]: 0%
- EOSINOPHIL [1]: 1%
- ERYTHROCYTE COUNT [1]: 5.56 x10E6/uL
- HEMATOCRIT [1]: 34.75%
- HEMOGLOBIN [1]: 13.68 G/DL
- LEUKOCYTE COUNT [1]: 15.25 x10E3/uL
- LYMPHOCYTE [1]: 90.17%
- MEAN CORPUSCULAR HEMOGLOBIN [1]: 24.6 pg
- MEAN CORPUSCULAR HEMOGLOBIN CONCENTRATION [1]: 39.4 G/DL
- MEAN CORPUSCULAR VOLUME [1]: 62.48 fL
- MONOCYTE [1]: 1.17%
- NEUTROPHIL [1]: 7.67%
- NUCLEATED RED BLOOD CELLS [1]: 0 /100WBC
- PLATELET COUNT [1]: 1342 x10E3/uL
- ALANINE AMINOTRANSFERASE [1]: 49.67 u/L
- ALBUMIN [1]: 4.15 G/DL
- ALKALINE PHOSPHATASE [1]: 346.83 u/L
- ASPARTATE AMINOTRANSFERASE [1]: 108.17 u/L
- BLOOD UREA NITROGEN [1]: 17.33 mg/dL
- CARBON DIOXIDE [1]: 25 mmol/L
- CHLORIDE [1]: 100.83 MEQ/L
- CHOLESTEROL [1]: 66.83 mg/dL
- CREATINE PHOSPHOKINASE [1]: 788 u/L
- CREATININE [1]: 0.18 mg/dL
- GLUCOSE [1]: 151.67 mg/dL
- LACTATE DEHYDROGENASE [1]: 982.5 u/L
- LIPASE [1]: 10.33 u/L
- PHOSPHORUS [1]: 11.23 mg/dL
- POTASSIUM [1]: 6.37 MEQ/L
- SODIUM [1]: 141.02 MEQ/L
- TOTAL BILIRUBIN [1]: 0.18 mg/dL
- TOTAL PROTEIN [1]: 5.9 G/DL
- URIC ACID [1]: 1.8 mg/dL
- ABSOLUTE BASOPHIL [2]: 0 CELLS/uL
- ABSOLUTE EOSINOPHIL [2]: 69 CELLS/uL
- ABSOLUTE LYMPHOCYTE [2]: 13632.83 CELLS/uL
- ABSOLUTE MONOCYTE [2]: 139.83 CELLS/uL
- ABSOLUTE SEGMENTED NEUTROPHIL [2]: 1225 CELLS/uL
- BASOPHIL [2]: 0%
- EOSINOPHIL [2]: 0.33%
- ERYTHROCYTE COUNT [2]: 5.52 x10E6/uL
- HEMATOCRIT [2]: 33.98%
- HEMOGLOBIN [2]: 13.22 G/DL
- LEUKOCYTE COUNT [2]: 15.07 x10E3/uL
- LYMPHOCYTE [2]: 90.83%
- MEAN CORPUSCULAR HEMOGLOBIN [2]: 23.95 pg
- MEAN CORPUSCULAR HEMOGLOBIN CONCENTRATION [2]: 38.9 G/DL
- MEAN CORPUSCULAR VOLUME [2]: 61.53 fL
- MONOCYTE [2]: 0.83%
- NEUTROPHIL [2]: 8%
- NUCLEATED RED BLOOD CELLS [2]: 0 /100WBC
- PLATELET COUNT [2]: 1196 x10E3/uL
- ALANINE AMINOTRANSFERASE [2]: 49.17 u/L
- ALBUMIN [2]: 4.2 G/DL
- ALKALINE PHOSPHATASE [2]: 352.33 u/L
- ASPARTATE AMINOTRANSFERASE [2]: 89.67 u/L
- BLOOD UREA NITROGEN [2]: 18 mg/dL
- CARBON DIOXIDE [2]: 27.67 mmol/L
- CHLORIDE [2]: 101 MEQ/L
- CHOLESTEROL [2]: 72.83 mg/dL
- CREATINE PHOSPHOKINASE [2]: 417.5 u/L
- CREATININE [2]: 0.18 mg/dL
- GLUCOSE [2]: 150.5 mg/dL
- LACTATE DEHYDROGENASE [2]: 517.33 u/L
- LIPASE [2]: 9 u/L
- PHOSPHORUS [2]: 11.87 mg/dL
- POTASSIUM [2]: 6.57 MEQ/L
- SODIUM [2]: 143.62 MEQ/L
- TOTAL BILIRUBIN [2]: 0.2 mg/dL
- TOTAL PROTEIN [2]: 6.08 G/DL
- URIC ACID [2]: 1.45 mg/dL
- ABSOLUTE BASOPHIL [3]: 0 CELLS/uL
- ABSOLUTE EOSINOPHIL [3]: 0 CELLS/uL
- ABSOLUTE LYMPHOCYTE [3]: 13493 CELLS/uL
- ABSOLUTE MONOCYTE [3]: 253.67 CELLS/uL
- ABSOLUTE SEGMENTED NEUTROPHIL [3]: 1253.33 CELLS/uL
- BASOPHIL [3]: 0%
- EOSINOPHIL [3]: 0%
- ERYTHROCYTE COUNT [3]: 5.62 x10E6/uL
- HEMATOCRIT [3]: 34.97%
- HEMOGLOBIN [3]: 13.6 G/DL
- LEUKOCYTE COUNT [3]: 15 x10E3/uL
- LYMPHOCYTE [3]: 90%
- MEAN CORPUSCULAR HEMOGLOBIN [3]: 24.23 pg
- MEAN CORPUSCULAR HEMOGLOBIN CONCENTRATION [3]: 38.9 G/DL
- MEAN CORPUSCULAR VOLUME [3]: 62.3 fL
- MONOCYTE [3]: 1.67%
- NEUTROPHIL [3]: 8.33%
- NUCLEATED RED BLOOD CELLS [3]: 0 /100WBC
- PLATELET COUNT [3]: 1159.67 x10E3/uL
- ALANINE AMINOTRANSFERASE [3]: 57.33 u/L
- ALBUMIN [3]: 4.3 G/DL
- ALKALINE PHOSPHATASE [3]: 338 u/L
- ASPARTATE AMINOTRANSFERASE [3]: 95 u/L
- BLOOD UREA NITROGEN [3]: 14.67 mg/dL
- CARBON DIOXIDE [3]: 26.33 mmol/L
- CHLORIDE [3]: 102 MEQ/L
- CHOLESTEROL [3]: 74 mg/dL
- CREATINE PHOSPHOKINASE [3]: 533.33 u/L
- CREATININE [3]: 0.2 mg/dL
- GLUCOSE [3]: 136.67 mg/dL
- LACTATE DEHYDROGENASE [3]: 408 u/L
- LIPASE [3]: 10.67 u/L
- PHOSPHORUS [3]: 12.77 mg/dL
- POTASSIUM [3]: 6.39 MEQ/L
- SODIUM [3]: 143.7 MEQ/L
- TOTAL BILIRUBIN [3]: 0.2 mg/dL
- TOTAL PROTEIN [3]: 6 G/DL
- URIC ACID [3]: 1.47 mg/dL
